Assay results taken from patent publication US11866720B2, “Transgenic or non-transgenic plants with mutated protoporphyrinogen oxidase having increased tolerance to herbicides” (priority 2013, dated 2024).
Values joined by “and” are separate entries in the source; they are usually repeats but may differ in a detail not shown here. Equal values may be shown once.

Assays:
[1] = system: transgenic Arabidopsis thaliana plants expressing wildtype or mutated PPO; assay: Germination / growth inhibition assay of transgenic Arabidopsis T2 seeds in 48-well plates; conditions: growth inhibition seven to ten days after seeding
[2] = system: transgenic soybean expressing mutated PPO; assay: Soybean segregating T1 individuals, greenhouse spray test (injury 0-9); type: in vivo, Glycine max; conditions: 1 week after treatment

Cc1nn(-c2cc(NS(C)(=O)=O)c(Cl)cc2Cl)c(=O)n1C(F)F [Sulfentrazon, sulfentrazone]
Relative tolerance rate as compared to a non-transgenic Arabidopsis plant (non-transgenic = 1.0) ([1]; transgenic Arabidopsis AMATU_PPO2_F420I): 193
Relative tolerance rate as compared to a non-transgenic Arabidopsis plant (non-transgenic = 1.0) ([1]; transgenic Arabidopsis AMATU_PPO2_F420L): 111
Relative tolerance rate as compared to a non-transgenic Arabidopsis plant (non-transgenic = 1.0) ([1]; transgenic Arabidopsis AMATU_PPO2_F420M): 161
Relative tolerance rate as compared to a non-transgenic Arabidopsis plant (non-transgenic = 1.0) ([1]; transgenic Arabidopsis AMATU_PPO2_R128A_F420I): 621
Relative tolerance rate as compared to a non-transgenic Arabidopsis plant (non-transgenic = 1.0) ([1]; transgenic Arabidopsis AMATU_PPO2_R128A_F420L): 717
Relative tolerance rate as compared to a non-transgenic Arabidopsis plant (non-transgenic = 1.0) ([1]; transgenic Arabidopsis AMATU_PPO2_R128L): 186
Relative tolerance rate as compared to a non-transgenic Arabidopsis plant (non-transgenic = 1.0) ([1]; transgenic Arabidopsis AMATU_PPO2_dG210): 203
Relative tolerance rate as compared to a non-transgenic Arabidopsis plant (non-transgenic = 1.0) ([1]; transgenic Arabidopsis AMATU_PPO2_dG210_R128L): 244
injury (0-9 point scale) ([2]; SDS10791 AmtuPPX2L R128A_F420I, Sulfentrazone 350 g ai/ha): 9 (5×) and 2 (2×) and 1
injury (0-9 point scale) ([2]; SDS10791 AmtuPPX2L R128A_F420I, Sulfentrazone 700 g ai/ha): 3 (3×) and 4 and 9 (3×) and 2
injury (0-9 point scale) ([2]; SDS-10642 AmtuPPX2L R128A_F420L, Sulfentrazone 350 g ai/ha): 1 (2×) and 0 (3×) and 3 (2×) and 2
injury (0-9 point scale) ([2]; SDS-10648 AmtuPPX2L R128A_F420I, Sulfentrazone 350 g ai/ha): 3 (3×) and 4 (2×) and 5 (2×) and 8
injury (0-9 point scale) ([2]; SDS-10648 AmtuPPX2L R128A_F420I, Sulfentrazone 700 g ai/ha): 3 (2×) and 2 and 9 and 4 (4×)
injury (0-9 point scale) ([2]; SDS-10652 AmtuPPX2L L397D_F420V, Sulfentrazone 350 g ai/ha): 9 and 6 and 3 (2×) and 5 (2×)
injury (0-9 point scale) ([2]; SDS-10787 AmtuPPX2L R128A_F420L, Sulfentrazone 350 g ai/ha): 5 (4×) and 4 and 6 and 9 (2×)
injury (0-9 point scale) ([2]; SDS-10985 AmtuPPX2L R128A_F420M, Sulfentrazone 350 g ai/ha): 3 (4×) and 8 and 4 and 1
injury (0-9 point scale) ([2]; SDS-10985 AmtuPPX2L R128A_F420M, Sulfentrazone 700 g ai/ha): 1 and 9 (2×) and 2 (2×) and 3 (2×) and 4
injury (0-9 point scale) ([2]; SDS-10990 AmtuPPX2L R128A_F420M, Sulfentrazone 350 g ai/ha): 3 (4×) and 4 (2×) and 9 (2×)
injury (0-9 point scale) ([2]; SDS-10990 AmtuPPX2L R128A_F420M, Sulfentrazone 700 g ai/ha): 3 and 4 (4×) and 9 (3×)
injury (0-9 point scale) ([2]; SDS-11034 AmtuPPX2L R128A_F420V, Sulfentrazone 350 g ai/ha): 1 (3×) and 3 (2×) and 9 and 0
injury (0-9 point scale) ([2]; wild type, Sulfentrazone 350 g ai/ha): 9 (5×) and 7 (2×) and 8
